Data reported in PubChem BioAssay (NCI).
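Protocol summary: plate cells (96-well), add compound at 5 concentrations, incubate 48 h, interpolate endpoints linearly. The concentration for full growth arrest is given as TGI.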 Where a SMILES comes first, the peptide text is derived from it. [ ]: non-standard residue; d: D form. The star is where a group is joined. X28 = COC1=CC(=O)N(C(=O)[C@@H](O*)C(C)C)[C@H]1Cc1ccccc1; NMeL = CN[C@@H](CC(C)C)C(=O)O; Hexanoyl = CCCCCC(=O)*

Tests used:
Test in all cases: growth of human tumour cells (NCI), 48 h
HS 578T breast = tested on: HS 578T breast
M14 melanoma = tested on: M14 melanoma
OVCAR-5 ovarian = tested on: OVCAR-5 ovarian
HL-60(TB) leukemia = tested on: HL-60(TB) leukemia
NCI/ADR-RES ovarian = tested on: NCI/ADR-RES ovarian
MDA-N = tested on: MDA-N
MDA-MB-231 breast = tested on: MDA-MB-231 breast
MOLT-4 leukemia = tested on: MOLT-4 leukemia
SK-MEL-5 melanoma = tested on: SK-MEL-5 melanoma
ACHN renal = tested on: ACHN renal
SK-MEL-28 melanoma = tested on: SK-MEL-28 melanoma
HCC-2998 colon = tested on: HCC-2998 colon
SN12C renal = tested on: SN12C renal
KM12 colon = tested on: KM12 colon
IGROV1 ovarian = tested on: IGROV1 ovarian
A498 renal = tested on: A498 renal
UACC-257 melanoma = tested on: UACC-257 melanoma
LOX IMVI melanoma = tested on: LOX IMVI melanoma

Row | Compound | TGI (HS 578T breast) | TGI (M14 melanoma) | TGI (OVCAR-5 ovarian) | TGI (HL-60(TB) leukemia) | TGI (NCI/ADR-RES ovarian) | TGI (MDA-N) | TGI (MDA-MB-231 breast) | TGI (MOLT-4 leukemia) | TGI (SK-MEL-5 melanoma) | TGI (ACHN renal) | TGI (SK-MEL-28 melanoma) | TGI (HCC-2998 colon) | TGI (SN12C renal) | TGI (KM12 colon) | TGI (IGROV1 ovarian) | TGI (A498 renal) | TGI (UACC-257 melanoma) | TGI (LOX IMVI melanoma)
1 | Cc1ccc(Nc2ncnc3sc(SCc4ccccc4)nc23)cc1 | > 100 µM | > 100 µM | > 100 µM | > 100 µM | > 100 µM | > 100 µM | > 100 µM | > 100 µM | > 100 µM | > 100 µM | > 100 µM | > 100 µM | > 100 µM | > 100 µM | > 100 µM | > 100 µM | > 100 µM | > 100 µM
2 | S=C1c2cc(Cl)ccc2NC(=NC2CCCC2)C2CSCN12 (stereo not given) | > 100 µM | > 100 µM | > 100 µM | – | > 100 µM | > 100 µM | > 100 µM | > 100 µM | > 100 µM | > 100 µM | > 100 µM | > 100 µM | > 100 µM | > 100 µM | > 100 µM | > 100 µM | > 100 µM | > 100 µM
3 | CCOc1ccc(N=NC2C(=O)N(C(=O)CC(=O)Nc3ccc(Cl)cc3)N=C2C)cc1 (stereo not given) | > 100 µM | > 100 µM | > 100 µM | > 100 µM | > 100 µM | > 100 µM | > 100 µM | – | > 100 µM | > 100 µM | > 100 µM | > 100 µM | > 100 µM | > 100 µM | > 100 µM | > 100 µM | – | > 100 µM
4 | CCCCCC(=O)N[C@H](C(=O)N[C@H](C(=O)N(C)[C@@H](CC(C)C)C(=O)N1CCC[C@H]1C(=O)N1CCC[C@H]1C(=O)O[C@H](C(=O)N1C(=O)C=C(OC)[C@@H]1Cc1ccccc1)C(C)C)C(C)C)C(C)C (Hexanoyl-VV[NMeL]PP-X28) | > 100 µM | > 48.1 µM | > 100 µM | 6.2 µM | > 100 µM | > 100 µM | > 100 µM | > 100 µM | – | > 100 µM | > 100 µM | > 100 µM | > 100 µM | > 100 µM | > 100 µM | > 100 µM | > 100 µM | > 100 µM
5 | COC(=O)CCCc1ccc2c(c1)CCC2 | > 100 µM | > 100 µM | > 100 µM | > 100 µM | > 100 µM | > 100 µM | > 100 µM | > 100 µM | > 100 µM | > 100 µM | > 100 µM | > 100 µM | > 100 µM | > 100 µM | > 100 µM | – | > 100 µM | > 100 µM
